In US11214803B2, “Modulators of YAP1 expression” (Ionis Pharmaceuticals, Inc., priority 2019, dated 2022):
Strand notation (5' to 3'): a small letter for the sugar, then the base; units joined by * are phosphorothioate-linked, units joined directly phosphodiester-linked; [ ] holds rarer units or linkages, { } end groups; capitals alone tell only the bases. k = constrained ethyl (cEt); [5mC] = 5-methylcytosine; d = 2'-deoxy (DNA)

Tested on: Yap1 mRNA
Assay: Antisense inhibition of human Yap1 in A-431 cells by cEt gapmers, single dose (Example 3, RTS36584)
Type: cell-based
How it was run: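 Values are % untreated control: Yap1 mRNA by quantitative RT-PCR (RTS36584), normalized to total RNA by RiboGreen. Before RNA isolation, 5,000 A-431 cells per well were exposed ~48 h to 2,000 nM 16-mer cEt gapmer, delivered without transfection reagent.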

[1] = Table 26, Yap1 mRNA by 3-10-3 cEt gapmers targeting SEQ ID NO.: 1, and 2, percent of untreated control
[2] = Table 27, Yap1 mRNA by 3-10-3 cEt gapmers targeting SEQ ID NO.: 1, and 2, percent of untreated control
[3] = Table 13, A-431 cells, 5,000 cells per well, free uptake, 2,000 nM modified oligonucleotide, approx. 48 hours, RTS36584, normalized to RIBOGREEN, Yap1 mRNA relative to untreated control cells
[4] = Table 11, A-431 cells, 5,000 cells per well, free uptake, 2,000 nM oligonucleotide, approx. 48 hours, primer probe set RTS36584, Yap1 mRNA normalized to RIBOGREEN, percent of untreated control
[5] = Table 28, Yap1 mRNA as percent of untreated control, 3-10-3 cEt gapmers targeting SEQ ID NO.: 1, and 2
[6] = Table 10, A-431 cells, 5,000 cells per well, free uptake, 2,000 nM oligonucleotide, approx. 48 hours, primer probe set RTS36584, Yap1 mRNA normalized to RIBOGREEN, percent of untreated control
[7] = Table 9, A-431 cells, 5,000 cells per well, free uptake, 2,000 nM, approximately 48 hours, RTS36584, normalized to RIBOGREEN, Yap1 mRNA relative to untreated control cells
[8] = Table 29, Yap1 mRNA as percent of untreated control, 3-10-3 cEt gapmers targeting SEQ ID NO.: 1, and 2
[9] = Table 8, A-431 cells, 5,000 cells per well, free uptake, 2,000 nM, approximately 48 hours, RTS36584, normalized to RIBOGREEN, Yap1 mRNA relative to untreated control cells
[10] = Table 35, Yap1 mRNA as percent of untreated control, 3-10-3 cEt gapmers targeting SEQ ID NO: 1 and 2, single dose

In the case of “1074284 (antisense k[5mC]*kA*kA*dA*dA*d[5mC]*dG*dA*dG*dG*dG*dT*d[5mC]*kA*kA*kG) [compound 1074284]”, the “YAP1 (% UTC)” value [1] is reported as 21 % UTC.
“1075116 (k[5mC]*kT*kT*dA*dA*d[5mC]*dA*dT*dT*dT*dA*dA*dT*kG*kG*k[5mC]; antisense) [compound 1075116]” was tested, and the “YAP1 (% UTC)” value [1] was 15 % UTC.
With “1074797 (kA*k[5mC]*kT*d[5mC]*d[5mC]*dA*dA*dA*dT*d[5mC]*dA*dA*dT*kG*kT*kG; antisense) [compound 1074797]” the “YAP1 (% UTC)” value [2] was 31 % UTC.
In the case of “958655 (kG*k[5mC]*kA*dA*dT*d[5mC]*dT*dG*dT*dG*dA*dT*d[5mC]*k[5mC]*k[5mC]*kA; antisense) [Compound 958655]”, the “YAP1 (% UTC)” value [3] is reported as 12 % UTC.
For “958549 (kT*kG*kT*dA*dG*dA*d[5mC]*dA*d[5mC]*dA*dT*dA*d[5mC]*kT*k[5mC]*kT; antisense) [Compound 958549]”, the “YAP1 (% UTC)” value (Table 12, A-431 cells, 5,000 cells per well, free uptake, 2,000 nM modified oligonucleotide, approx. 48 hours, RTS36584, normalized to RIBOGREEN, Yap1 mRNA relative to untreated control cells) was 8 % UTC.
“958563 (kA*kG*k[5mC]*dT*dT*dT*dT*dG*d[5mC]*d[5mC]*dA*dG*dG*kA*kG*kA; antisense) [Compound 958563]” was tested, and the “YAP1 (% UTC)” value [4] was 3 % UTC.
In the case of “1075854 (k[5mC]*kT*kT*dA*dT*dA*dA*dT*dA*dG*dA*dG*d[5mC]*kT*kA*kA; antisense) [compound 1075854]”, the “YAP1 (% UTC)” value [5] is reported as 52 % UTC.
For “1075085 (antisense kT*kG*k[5mC]*dG*dG*dA*dA*dA*d[5mC]*dA*dA*dG*dT*kG*kT*kA) [compound 1075085]”, the “YAP1 (% UTC)” value [2] was 11 % UTC.
“1074708 (antisense k[5mC]*kT*kT*dT*dA*dA*dT*dG*dG*d[5mC]*dA*dG*d[5mC]*kA*k[5mC]*kG) [compound 1074708]” was tested, and the “YAP1 (% UTC)” value (Table 34, Yap1 mRNA as percent of untreated control, 3-10-3 cEt gapmers targeting SEQ ID NO: 1 and 2, single dose) was 55 % UTC.
In the case of “958532 (kG*kA*kA*dG*dT*dA*dG*dG*dA*dG*d[5mC]*dA*dA*kG*kT*k[5mC]; antisense) [Compound 958532]”, the “YAP1 (% UTC)” value [6] is reported as 2 % UTC.
For “958501 (kT*kG*k[5mC]*d[5mC]*dT*dA*dG*dG*dT*dT*d[5mC]*d[5mC]*dG*kA*k[5mC]*kA; antisense) [Compound 958501]”, the “YAP1 (% UTC)” value [7] was 41 % UTC.
“1074156 (kA*kG*kG*dG*d[5mC]*dT*dA*d[5mC]*dG*d[5mC]*d[5mC]*d[5mC]*dG*kG*kA*k[5mC]; antisense) [compound 1074156]” was tested, and the “YAP1 (% UTC)” value [1] was 96 % UTC.
“1074670 (antisense kA*kA*kG*dT*dA*dG*d[5mC]*dT*dT*dT*dG*dA*dT*k[5mC]*kT*kT) [compound 1074670]” was tested, and the “YAP1 (% UTC)” value [5] was 49 % UTC.
For “1076013 (kG*kT*kT*dT*dA*dA*dT*dA*d[5mC]*d[5mC]*dT*d[5mC]*dT*kG*kA*k[5mC]; antisense) [compound 1076013]”, the “YAP1 (% UTC)” value [2] was 76 % UTC.
For “958605 (antisense k[5mC]*kT*k[5mC]*dA*dG*dA*dT*dG*dT*dA*d[5mC]*d[5mC]*dA*kA*k[5mC]*kG) [Compound 958605]”, the “YAP1 (% UTC)” value [3] was 7 % UTC.
In the case of “1075695 (kG*kA*kA*dT*dA*dA*d[5mC]*dA*d[5mC]*d[5mC]*dA*d[5mC]*dA*kT*kT*kA; antisense) [compound 1075695]”, the “YAP1 (% UTC)” value [8] is reported as 30 % UTC.
With “958790 (antisense kG*kA*kA*dA*dA*dG*dA*d[5mC]*dG*dA*d[5mC]*dA*d[5mC]*kA*kG*kT) [Compound 958790]” the “YAP1 (% UTC)” value [3] was 68 % UTC.
For “958367 (antisense k[5mC]*kT*kA*dG*d[5mC]*dT*dT*dG*dG*dT*dG*dG*d[5mC]*kA*kG*k[5mC]) [Compound 958367]”, the “YAP1 (% UTC)” value [9] was 105 % UTC.
In the case of “958392 (antisense k[5mC]*kT*kA*dT*dG*dA*dG*dT*d[5mC]*dA*dA*d[5mC]*d[5mC]*kT*kG*k[5mC]) [Compound 958392]”, the “YAP1 (% UTC)” value [9] is reported as 50 % UTC.
In the case of “958453 (antisense kG*k[5mC]*k[5mC]*dT*d[5mC]*dA*dT*dG*dG*dG*d[5mC]*dA*d[5mC]*kG*kG*kT) [Compound 958453]”, the “YAP1 (% UTC)” value [4] is reported as 70 % UTC.
For “1074287 (antisense kA*k[5mC]*kT*dG*dA*dT*dT*d[5mC]*dT*d[5mC]*dT*dG*dG*kT*kT*k[5mC]) [compound 1074287]”, the “YAP1 (% UTC)” value [8] was 11 % UTC.
For “958495 (kG*kG*kT*d[5mC]*dA*dT*dT*dA*dT*dG*dT*dG*dA*k[5mC]*kT*kA; antisense) [Compound 958495]”, the “YAP1 (% UTC)” value [3] was 56 % UTC.
With “958716 (antisense kA*kT*kG*dG*dA*d[5mC]*dT*dG*dT*dA*dT*dG*d[5mC]*kA*kG*k[5mC]) [Compound 958716]” the “YAP1 (% UTC)” value [7] was 84 % UTC.
With “1074188 (antisense kG*k[5mC]*kT*dG*d[5mC]*dG*dA*dA*dG*dG*d[5mC]*dG*dG*k[5mC]*kT*kG) [compound 1074188]” the “YAP1 (% UTC)” value [1] was 113 % UTC.
For “958354 (antisense kG*kT*k[5mC]*dG*dG*dT*d[5mC]*dT*d[5mC]*d[5mC]*dG*dA*dG*kT*k[5mC]*k[5mC]) [Compound 958354]”, the “YAP1 (% UTC)” value [9] was 31 % UTC.
For “1074165 (k[5mC]*k[5mC]*k[5mC]*dA*dG*dG*d[5mC]*dG*dA*dG*d[5mC]*dG*dA*kG*kG*kG; antisense) [compound 1074165]”, the “YAP1 (% UTC)” value [10] was 90 % UTC.
For “1076469 (kG*kT*kA*dA*dA*dA*dG*dG*dG*dA*dA*d[5mC]*dT*kA*kA*kG; antisense) [compound 1076469]”, the “YAP1 (% UTC)” value [10] was 69 % UTC.
With “958592 (k[5mC]*kG*kT*dA*dA*dG*dA*dT*d[5mC]*dA*dA*dA*dG*k[5mC]*kA*k[5mC]; antisense) [Compound 958592]” the “YAP1 (% UTC)” value [6] was 12 % UTC.
For “958613 (antisense k[5mC]*k[5mC]*kT*dG*dA*dA*dG*d[5mC]*d[5mC]*dG*dA*dG*dT*kT*k[5mC]*kA) [Compound 958613]”, the “YAP1 (% UTC)” value [4] was 15 % UTC.
For “1076239 (kG*kT*kT*dT*dA*dA*dA*dA*dA*dA*dA*dA*d[5mC]*kG*kG*kG; antisense) [compound 1076239]”, the “YAP1 (% UTC)” value [8] was 75 % UTC.
For “958404 (antisense kG*k[5mC]*kA*d[5mC]*dA*d[5mC]*dA*dA*d[5mC]*dT*d[5mC]*dA*dG*kA*k[5mC]*kA) [Compound 958404]”, the “YAP1 (% UTC)” value [9] was 52 % UTC.
In the case of “1074830 (kG*kA*kG*dG*dA*dT*dA*dA*dA*dA*dT*d[5mC]*d[5mC]*kA*k[5mC]*k[5mC]; antisense) [compound 1074830]”, the “YAP1 (% UTC)” value [5] is reported as 89 % UTC.
In the case of “958365 (antisense kG*k[5mC]*k[5mC]*dA*dT*dG*dT*dT*dG*dT*dT*dG*dT*k[5mC]*kT*kG) [Compound 958365]”, the “YAP1 (% UTC)” value [9] is reported as 34 % UTC.
For “958349 (k[5mC]*k[5mC]*kG*dA*dG*dT*d[5mC]*d[5mC]*d[5mC]*d[5mC]*dG*d[5mC]*dG*kG*kA*k[5mC]; antisense) [Compound 958349]”, the “YAP1 (% UTC)” value [9] was 81 % UTC.
In the case of “958468 (antisense kT*kT*kG*dG*dT*dG*dG*d[5mC]*dA*dG*d[5mC]*d[5mC]*dA*kA*kA*kA) [Compound 958468]”, the “YAP1 (% UTC)” value [4] is reported as 86 % UTC.
In the case of “1075951 (antisense k[5mC]*kA*k[5mC]*dG*dG*dA*dA*dG*dA*dG*d[5mC]*dT*dT*kG*k[5mC]*kA) [compound 1075951]”, the “YAP1 (% UTC)” value [8] is reported as 34 % UTC.
“1074382 (kA*kG*kG*dT*dA*dG*dT*d[5mC]*dT*dG*dG*dG*dA*kA*kA*k[5mC]; antisense) [compound 1074382]” was tested, and the “YAP1 (% UTC)” value [5] was 8 % UTC.
“1075157 (k[5mC]*k[5mC]*kA*dG*dA*dA*dA*dA*dT*d[5mC]*dA*dT*dA*kG*kT*kA; antisense) [compound 1075157]” was tested, and the “YAP1 (% UTC)” value [10] was 19 % UTC.
In the case of “1076079 (kA*kA*kG*d[5mC]*dA*dA*dT*dA*dT*dA*dT*dG*dG*k[5mC]*k[5mC]*kT; antisense) [compound 1076079]”, the “YAP1 (% UTC)” value [8] is reported as 37 % UTC.
For “958361 (antisense kG*k[5mC]*kT*d[5mC]*dG*dA*dA*d[5mC]*dA*dT*dG*d[5mC]*dT*kG*kT*kG) [Compound 958361]”, the “YAP1 (% UTC)” value [9] was 8 % UTC.
With “958623 (antisense kT*kT*kG*dA*dT*dA*dT*dT*d[5mC]*d[5mC]*dG*d[5mC]*dA*kT*kT*kG) [Compound 958623]” the “YAP1 (% UTC)” value [4] was 3 % UTC.
With “958442 (antisense kG*kG*kA*dG*dA*dA*dG*d[5mC]*dG*dG*d[5mC]*dG*dA*k[5mC]*kG*kG) [Compound 958442]” the “YAP1 (% UTC)” value [6] was 21 % UTC.
For “958710 (antisense kA*kG*kG*dG*dA*dA*d[5mC]*d[5mC]*d[5mC]*dT*dT*dG*dG*k[5mC]*kT*kA) [Compound 958710]”, the “YAP1 (% UTC)” value [3] was 77 % UTC.
“958671 (k[5mC]*kA*kT*dT*dA*dT*dA*dT*dG*dG*d[5mC]*dA*d[5mC]*k[5mC]*k[5mC]*kA; antisense) [Compound 958671]” was tested, and the “YAP1 (% UTC)” value [7] was 19 % UTC.
In the case of “1075502 (k[5mC]*kT*kT*dA*dA*d[5mC]*dA*dT*dG*dA*dT*dT*d[5mC]*kT*kA*kG; antisense) [compound 1075502]”, the “YAP1 (% UTC)” value [5] is reported as 61 % UTC.
In the case of “958376 (antisense k[5mC]*kT*kG*dG*dG*dA*dT*dT*dG*dA*dT*dA*dT*kT*k[5mC]*k[5mC]) [Compound 958376]”, the “YAP1 (% UTC)” value [9] is reported as 31 % UTC.
